Measurements published in paper PMC7913460, “Targeting hydroxycinnamoyl CoA: shikimate hydroxycinnamoyl transferase for lignin modification in Brachypodium distachyon” (Biotechnology for Biofuels, 2021).

Key:
Assay type in all cases: biochemical, Medicago truncatula
MtHCT2 [1] = test system: T1, MtHCT2; assay: HPLC product assay, reverse HCT reaction; conditions: 500 µM CoA, 100 mM sodium phosphate pH 7.5, 500 µM DTT; kcat apparent; substrate tested 20 to 400 µM
T1 construct: gene HCT2
Description: HPLC product assay, reverse HCT reaction on MtHCT2

MtHCT1 [2] = test system: T2, MtHCT1; assay: HPLC product assay, reverse HCT reaction; conditions: 500 µM CoA, 100 mM sodium phosphate pH 7.5, 500 µM DTT; kcat apparent; substrate tested 20 to 400 µM
T2 construct: gene HCT1
Description: HPLC product assay, reverse HCT reaction on MtHCT1

MtHCT1 [3] = test system: T2, MtHCT1; assay: HPLC product assay, forward HCT reaction; conditions: 500 µM shikimic acid, 100 mM sodium phosphate pH 7.5, 500 µM DTT; kcat apparent
Description: HPLC product assay, forward HCT reaction on MtHCT1

MtHCT2 [4] = test system: T1, MtHCT2; assay: HPLC product assay, forward HCT reaction; conditions: 500 µM shikimic acid, 100 mM sodium phosphate pH 7.5, 500 µM DTT; kcat apparent
Description: HPLC product assay, forward HCT reaction on MtHCT2

`O=C(/C=C/c1ccc(O)c(O)c1)O[C@@H]1CC(C(=O)O)=C[C@@H](O)[C@H]1O` [caffeoyl shikimate] showed a Km (MtHCT2 [1]) of 139 µM and a Km (MtHCT1 [2]) of 148 µM.

`CC(C)(COP(=O)(O)OP(=O)(O)OC[C@H]1O[C@@H](n2cnc3c(N)ncnc32)[C@H](O)[C@@H]1OP(=O)(O)O)[C@@H](O)C(=O)NCCC(=O)NCCSC(=O)/C=C/c1ccc(O)cc1` [4-coumaroyl CoA] showed a Km (MtHCT1 [3]) of 40.6 µM and a Km (MtHCT2 [4]) of 44.3 µM.
